The values that follow come from ChEMBL document CHEMBL3603754, “Mitochondria and DNA Targeting of 5,10,15,20-Tetrakis(7-sulfonatobenzo[b]thiophene) Porphyrin-Induced Photodynamic Therapy via Intrinsic and Extrinsic Apoptotic Cell Death” (J Med Chem, 2015).

Calls of active or inactive are those of the source. No cut-off for these calls is given here.

What is called IC50 is the concentration needed to halve the response being measured. Low values mean greater potency in that assay, high ones weaker potency in that assay.

For data set [1], the system named is MCF7. Briefly: Induction of extrinsic apoptosis in human MCF7 cells assessed as increase of casepase-3 level at 5 uM treated for 1 hr followed by irradiated with 660 nm of diode laser light at 50mW for 30 mins measured after 45 mins using (z-DEVD)2-Magic Red by fluorescence assay. It counts as functional, cell-based.
Data set [2] concerns MCF7. Briefly: Induction of mitochondrial membrane disruption in human MCF7 cells assessed as calcein-AM accumulation in cytosol treated for 1 hr followed by irradiated with 660 nm of diode laser light at 50mW for 30 mins measured after 45 mins by fluorescence assay. It counts as functional, cell-based.
The test system of data set [3] is MCF7. Briefly: Induction of extrinsic apoptosis in human MCF7 cells assessed as increase of casepase-3 level at 5 uM treated for 1 hr followed by irradiated with 660 nm of diode laser light at 50mW for 30 mins measured after 45 mins using (z-DEVD)2-Magic Red by fluorescence assay in presence of caspase-2 inhibitor. It counts as functional, cell-based.
The nature of data set [4]: Intracellular uptake in human MCF7 cell nucleus at 10 uM after 4 hrs using Hoechst staining by fluorescence microscopic analysis. The settings on record: mcf7, 4 h. It counts as ADME, cell-based.
A short description of data set [5]: Intracellular uptake in human MCF7 cell mitochondria at 10 uM after 4 hrs using mitotracker green staining by fluorescence microscopic analysis. It counts as ADME. The settings on record: mcf7, 4 h.
Data set [6] deals with MCF7. Briefly: Induction of DNA fragmentation in human MCF7 cell nucleus treated at 5 uM followed by irradiated with 660 nm of diode laser light at 50mW for 30 mins by DNA ladder assay. The format is functional, cell-based.
For data set [7], the system named is MCF7. Briefly: Induction of mitochondrial membrane disruption in human MCF7 cells assessed as calcein-AM accumulation in mitochondria at 1 to 3 uM treated for 1 hr followed by irradiated with 660 nm of diode laser light at 50mW for 30 mins measured after 45 mins by fluorescence assay. It counts as functional, cell-based.
Data set [8] in a line: Intracellular uptake in human MCF7 cell mitochondria at 10 uM after 4 hrs using Hoechst staining by fluorescence microscopic analysis. The settings on record: mcf7, 4 h. It counts as ADME.
For data set [9], the system named is MCF7. Briefly: Cellular uptake in human MCF7 cells assessed as increase of intracellular fluorescence up to 60 mins using alexa fluor 488, phalloidin 488/525, mito-tracker 490/516 staining by fluorescence microscopic analysis. It counts as ADME, cell-based. The settings on record: mcf7, 1 h.
Data set [10] concerns MCF7. In words: Induction of intrinsic apoptosis in human MCF7 cells assessed as increase of casepase-9 level at 3 to 5 uM treated for 1 hr followed by irradiated with 660 nm of diode laser light at 50mW for 30 mins measured after 45 mins using (Ac-LEHD)2-Rh110 by fluorescence assay in presence of caspase-2 inhibitor. The format is functional, cell-based.
The nature of data set [11]: Intracellular uptake in human MCF7 cell F-actin filament at 10 uM after 4 hrs using Hoechst staining by fluorescence microscopic analysis. It counts as ADME, cell-based. Conditions: mcf7, 4 h.
Data set [12] concerns MCF7. Briefly: Induction of mitochondrial membrane disruption in human MCF7 cells assessed as calcein-AM accumulation in mitochondria treated for 1 hr followed by irradiated with 660 nm of diode laser light at 50mW for 30 mins measured after 45 mins by fluorescence assay. It counts as functional, cell-based.
Data set [13] deals with MCF7. Briefly: Induction of extrinsic apoptosis in human MCF7 cells assessed as increase of casepase-3 level at 6 uM treated for 1 hr followed by irradiated with 660 nm of diode laser light at 50mW for 30 mins measured after 45 mins using (z-DEVD)2-Magic Red by fluorescence assay. It counts as functional, cell-based.
For data set [14], the system named is MCF7. In words: Cellular uptake in human MCF7 cells assessed as increase of intracellular fluorescence after 20 mins using alexa fluor 488, phalloidin 488/525, mito-tracker 490/516 staining by fluorescence microscopic analysis. The format is ADME, cell-based. Conditions: mcf7, 20 min.
The subject of data set [15] is MCF7. Briefly: Dark toxicity in human MCF7 cells up to 40 uM after 24 hrs by MTT assay. The format is cell-based. The settings on record: mcf7, 24 h. Background: Tetrazolium dyes change colour on reduction, which living cells bring about.
Data set [16] deals with MCF7. In words: Cellular uptake in human MCF7 cells assessed as increase of intracellular fluorescence after 1 hr using alexa fluor 488, phalloidin 488/525, mito-tracker 490/516 staining by FACS analysis relative to control. The format is ADME, cell-based. Conditions: mcf7, 1 h. A general note: A flow cytometer gives signals particle by particle.
Data set [17] in a line: Intracellular uptake in human MCF7 cell lysosomes at 10 uM after 4 hrs using Hoechst staining by fluorescence microscopic analysis. It counts as ADME, cell-based, Lysosome. Conditions: mcf7, 4 h.
Data set [18] deals with MCF7. In words: Induction of extrinsic apoptosis in human MCF7 cells assessed as increase of […] level at 6 uM treated for 1 hr followed by irradiated with 660 nm of diode laser light at 50mW for 30 mins measured after 45 mins using (z-IETD)2-Rh110 by fluorescence assay in presence of caspase-8 inhibitor Z-IETD-FMK. The format is functional, cell-based.
For data set [19], the system named is MCF7. Briefly: Induction of intrinsic apoptosis in human MCF7 cells assessed as increase of casepase-9 level at 3 to 5 uM treated for 1 hr followed by irradiated with 660 nm of diode laser light at 50mW for 30 mins measured after 45 mins using (Ac-LEHD)2-Rh110 by fluorescence assay. It counts as functional, cell-based.
In data set [20] the test system is MCF7. In words: Induction of extrinsic apoptosis in human MCF7 cells assessed as increase of casepase-3 level at 6 uM treated for 1 hr followed by irradiated with 660 nm of diode laser light at 50mW for 30 mins measured after 45 mins using (z-DEVD)2-Magic Red by fluorescence assay in presence of caspase-8 inhibitor Z-IETD-FMK. It counts as functional, cell-based.

The test system of data set [21] is MCF7. In words: Photo-toxicity in human MCF7 cells treated for 24 hrs followed by irradiated with 660 nm of diode laser light at 50mW for 30 mins measured after 24 hrs by MTT assay. The format is functional, cell-based. The settings on record: MCF7, light or radiation study.
For data set [22], the system named is MCF7. Briefly: Induction of ROS production in human MCF7 cells treated for 1 hr followed by irradiated with 660 nm of diode laser light at 50mW for 30 mins using DCFDA by fluorescence microscopic analysis. It counts as functional, cell-based.
Data set [23] deals with MCF7. Briefly: Induction of extrinsic apoptosis in human MCF7 cells assessed as increase of casepase-3 level at 3 to 5 uM treated for 1 hr followed by irradiated with 660 nm of diode laser light at 50mW for 30 mins measured after 45 mins using (z-DEVD)2-Magic Red by fluorescence assay. The format is functional, cell-based.
The test system of data set [24] is MCF7. In words: Induction of extrinsic apoptosis in human MCF7 cells assessed as increase of […] level at 6 uM treated for 1 hr followed by irradiated with 660 nm of diode laser light at 50mW for 30 mins measured after 45 mins using (z-IETD)2-Rh110 by fluorescence assay. It counts as functional, cell-based.

As for `O=S(=O)([O-])c1cccc2cc(-c3c4nc(c(-c5cc6cccc(S(=O)(=O)[O-])c6s5)c5ccc([nH]5)c(-c5cc6cccc(S(=O)(=O)[O-])c6s5)c5nc(c(-c6cc7cccc(S(=O)(=O)[O-])c7s6)c6ccc3[nH]6)C=C5)C=C4)sc12.[Na+].[Na+].[Na+].[Na+]`, the outcome in the data set with MCF7 [1], with MCF7 [6], in the data set with MCF7 [7], in the data set on MCF7 [13], in the data set with MCF7 [19] and in the data set with MCF7 [23] was Active. Moreover, in the data set with MCF7 [24], the outcome was Active. The Activity entry is “Dose-dependent effect” in the data set with MCF7 [2], “Dose-dependent effect” in the data set on MCF7 [12], “Non-toxic” in the data set on MCF7 [15] and “Dose-dependent effect” in the data set with MCF7 [22]. In addition, the outcome in the data set on MCF7 [3], with MCF7 [10], in the data set with MCF7 [18] and in the data set with MCF7 [20] was inactive. The Drug uptake result in data set [4] was “Active”; in data set [5], “Active”; in data set [8], “Active”; with MCF7 [9] it was “Active”; in [11], “Not Active”; with MCF7 [14], “Active”. Further, the Drug uptake entry in data set [17] is recorded as “Not Active”. The “fold change (FC)” value in the data set on MCF7 [16] stood at 3. The compound also registered an IC50 in the data set on MCF7 [21] of 5 µM.

Turning to `O=S(=O)(O)c1ccc(-c2c3nc(c(-c4ccc(S(=O)(=O)O)cc4)c4ccc([nH]4)c(-c4ccc(S(=O)(=O)O)cc4)c4nc(c(-c5ccc(S(=O)(=O)O)cc5)c5ccc2[nH]5)C=C4)C=C3)cc1`, the Drug uptake result in [17] is listed as “Active”. In the data set with MCF7 [21], half-maximal inhibition (IC50) required 11.8 µM.
